Like-named read-outs stand apart in the source and are kept apart here. Marks after values point to notes of the source that are not given here.
Tests used:
[1] = biological target: T1, Lysozyme from chicken egg white (Gallus gallus, UniProt P00698); test: Reactivity with model protein lysozyme, ESI-MS; settings: 37 °C; for Reaction with lysozyme: compound/lysozyme 2 : 1, 24 h; for % Lysozyme methylation (alkylation): lysozyme:compound 1 : 2 molar ratio, 24 h, flow injection ESI-MS peak integrals
T1 construct: Lysozyme from chicken egg white (M=14 300 Da, 62971 Sigma‐Aldrich); purchased Sigma-Aldrich 62971; host or cells: chicken egg white (natural source)
T1 sequence (P00698 19-147): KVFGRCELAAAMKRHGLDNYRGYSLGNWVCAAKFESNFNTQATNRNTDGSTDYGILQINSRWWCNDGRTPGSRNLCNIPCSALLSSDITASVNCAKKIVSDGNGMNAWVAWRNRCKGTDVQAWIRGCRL
Procedure: To gain insights into the reactivity of the diiron compounds with possible biomolecular targets, we selected lysozyme, a small model protein often used to test interactions with metal compounds.[36] Following 24 h incubation at 37 °C, diiron compounds/lysozyme solutions (2 : 1 molar ratio) in ammonium acetate were filtered and analysed by ESI‐MS. In all cases, the original organometallic cation was identified as the major Fe‐containing compound in solution (Figures S33‐S40). Concerning the protein scaffold, the only identified adduct from the interaction with [2–3]^+ was the methylated derivative, which was also checked by HPLC separation (Figure S41). The expected diiron counterparts, that is, 1A–H, could not be detected possibly due to their water insolubility. The [lysozyme+Me^+] to [lysozyme] ratios, calculated on extracted ion chromatograms after protein peak reconstruction, are reported in Table 4. […] Methylation is a common post‐translational modification of protein/enzymes (methyltransferase enzymes) but it has also been observed as a result of the interaction of proteins with various electrophiles.[37]
Lysozyme from chicken egg white (M=14 300 Da, 62971 Sigma‐Aldrich) was stored at 4 °C as received. A stock solution was prepared by dissolving the powder protein (125 μM) and NH4OAc (1.25×10^−2 M)[56] in HPLC water and was immediately used. Stock solutions of diiron complexes (c Fe2 =1×10^−3 M) were prepared by dissolving the selected compound in DMSO (0.25 mL) or MeOH (0.7 mL; used only for [4G]BF4), then diluting with HPLC water up to 5.0 mL total volume. Next, aliquots of the Fe (0.50 mL) and lysozyme (2.0 mL) stock solutions were mixed and the final solution (Fe2 200 μM, lysozyme 100 μM, NH4OAc 10 mM; 1 % DMSO) was kept at 37 °C for 24 h. The resulting suspensions were centrifuged (RCF 805, 5 min; Hettich EBA 8G) to separate the orange‐brown precipitate. A blank solution (lysozyme only) was prepared and treated by the same procedure. Next, samples were diluted 1 : 20 (v/v) with a water/MeCN (1 : 1, v/v) solution containing 1 % formic acid and analysed by HPLC‐MS and flow injection MS. For HPLC analyses, elution was conducted with a MeCN/water linear gradient (90 : 10 to 5 : 95 v/v over 60 min), containing 0.05 % trifluoroacetic acid. The following compounds were identified by their MS pattern: [2A]^+ (t R=18.0 min), [2B]^+ (t R=13.8 min), [2C]^+ (t R=18.8 min), [2D]^+ (t R=17.0 min), [2E]^+ (t R=18.3 min), [2F]^+ (t R=9.7 min), [3F]^+ (t R=13.1 min), [4G]^+ (t R=23.0 min), [5H]^+ (t R=24.3 min), lysozyme‐CH3 (t R=21.0 min), lysozyme (t R=21.6 min). In all cases, the starting organometallic cation was identified as the major Fe‐containing compound in solution. Protein peaks pattern were obtained following peak reconstruction. Peak integrals for lysozyme and methyl lysozyme were calculated from the extracted ion chromatograms from the flow injection MS analysis (Table 4).

[2] = system: Human pancreatic (PSN‐1) carcinoma cell line; test: MTT assay, 2D cell culture; assay type: cell-based
Procedure: (§1) Compounds [2B]BF4, [2C]CF3SO3, [2D]CF3SO3 and [3F]CF3SO3 were dissolved in water while the other compounds were dissolved in the minimum DMSO amount prior to cell culture testing. A calculated amount of the stock drug DMSO solution was added to the cell culture media to reach a final maximum DMSO concentration of 0.5 %, which had no effects on cell viability.
(§2) Cell cultures. Human colon (HCT‐15), pancreatic (PSN‐1) and breast (MCF‐7) carcinoma cell lines along with human melanoma cells (A375) were obtained from American Type Culture Collection (ATCC, Rockville, MD). Embryonic kidney HEK293 cells were obtained from the European Collection of Cell Cultures (ECACC, Salisbury, UK). Human ovarian 2008 cancer cells were kindly provided by Prof. G. Marverti (Dept. of Biomedical Science of Modena University, Italy). MCF‐7 ADR cells were kindly provided by Prof. N. Colabufo (Dept. Pharmacy, University of Bari, Italy). Cell lines were maintained in the logarithmic phase at 37 °C in a 5 % CO2 atmosphere using the following culture media containing 10 % fetal calf serum (Euroclone, Milan, Italy), antibiotics (50 units/mL penicillin and 50 μg/mL streptomycin) and 2 mM L‐glutamine: i) RPMI‐1640 medium (Euroclone, Milan, Italy) for PSN‐1, 2008, HCT‐15, MCF‐7 and MCF‐7 ADR cells; ii) DMEM for A375 and HEK293 cells.
(§3) MTT assay. The growth inhibitory effect towards tumour cells was evaluated by means of MTT assay as previously described.[57] Briefly, 3–8×10^3 cells/well, dependent upon the growth characteristics of the cell line, were seeded in 96‐well microplates in growth medium (100 μL). After 24 h, the medium was removed and replaced with a fresh one containing the compound to be studied at the appropriate concentration. Triplicate cultures were established for each treatment. After 24 or 72 h, each well was treated with 10 μL of a 5 mg/mL MTT saline solution, and following 5 h of incubation, 100 μL of a sodium dodecyl sulfate (SDS) solution in HCl 0.01 M were added. After an overnight incubation, cell growth inhibition was detected by measuring the absorbance of each well at 570 nm using a Bio‐Rad 680 microplate reader. Mean absorbance for each drug dose was expressed as a percentage of the control untreated well absorbance and plotted against drug concentration. IC50 values, the drug concentrations that reduce the mean absorbance at 570 nm to 50 % of those in the untreated control wells, were calculated by the four‐parameter logistic (4‐PL) model. Evaluation was based on means from at least four independent experiments.

[3] = system: human melanoma cells (A375); test: MTT assay, 2D cell culture; assay type: cell-based; settings: 72 h
Procedure: as §1, §2, §3

[4] = system: Human ovarian 2008 cancer cells; test: MTT assay, 2D cell culture; assay type: cell-based; settings: 2008 cells, 72 h
Procedure: as §1, §2, §3

[5] = system: Human breast (MCF‐7) carcinoma cell line; test: MTT assay, 2D cell culture; assay type: cell-based; settings: MCF‐7 cells, 72 h
Procedure: as §1, §2, §3

[6] = system: Human colon (HCT‐15) carcinoma cell line; test: MTT assay, 2D cell culture; assay type: cell-based; settings: HCT‐15 cells, 72 h
Procedure: as §1, §2, §3

[7] = PSN-1 cells, 24 h, read-out: IC50 (µM) ± SD
[8] = PSN‐1 cells, 72 h, read-out: IC50 (μM)±SD

## [Fe2Cp2(CO)2(μ‐CO){μ‐CNBn2}]X [[5H]CF3SO3]
[1]
  Reaction with lysozyme: did not react with lysozyme
  % Lysozyme methylation (alkylation): 0 %^[b]
[2]; [7]
  IC50: 112 ± 2.4 µM
[2]; [8]
  IC50: 33.7 ± 4.2 µM
[3]
  IC50: 30.8 ± 5.1 µM
[4]
  IC50: 37.4 ± 5.2 µM
[5]
  IC50: 36.2 ± 6.1 µM
[6]
  IC50: 32.5 ± 4.8 µM

## [Fe2Cp2(CO)2(μ‐CO){μ‐CNEt(2‐naphthyl)}]BF4 [[4G]BF4]
[1]
  Reaction with lysozyme: did not react with lysozyme
  % Lysozyme methylation (alkylation): 0 %^[b]
[2]; [7]
  IC50: 69.5 ± 2.1 µM
[2]; [8]
  IC50: 25.6 ± 4.5 µM
[3]
  IC50: 26.2 ± 5.6 µM
[4]
  IC50: 38.8 ± 6.9 µM
[5]
  IC50: 21.4 ± 3.6 µM
[6]
  IC50: 22.9 ± 5.8 µM

## [Fe2Cp2(CO)2(μ‐CO){μ‐CNMe(1H‐indol‐6‐yl)}]CF3SO3 [[2A]CF3SO3]
[1]
  % Lysozyme methylation (alkylation): 45%
[2]; [7]
  IC50: 144 ± 16 µM
[2]; [8]
  IC50: 54.3 ± 6.2 µM
[3]
  IC50: 50.8 ± 6.1 µM
[4]
  IC50: 55.5 ± 4.8 µM
[5]
  IC50: 63.2 ± 5.5 µM
[6]
  IC50: 69.5 ± 6.7 µM

## [Fe2Cp2(CO)2(μ‐CO){μ‐CNMe(4‐C6H4OMe)}]CF3SO3 [[2D]CF3SO3]
[1]
  % Lysozyme methylation (alkylation): 31%
[2]; [7]
  IC50: 35 ± 2 µM
[2]; [8]
  IC50: 16.2 ± 2.9 µM
[3]
  IC50: 15.5 ± 2.6 µM
[4]
  IC50: 21.3 ± 3.1 µM
[5]
  IC50: 14.3 ± 2.6 µM
[6]
  IC50: 15.6 ± 3.5 µM

## [Fe2Cp2(CO)2(μ‐CO){μ‐CNMe(C6H11)}]X [[2C]CF3SO3]
[1]
  % Lysozyme methylation (alkylation): 50%
[2]; [7]
  IC50: 94.2 ± 3.8 µM
[2]; [8]
  IC50: 15.3 ± 2.7 µM
[3]
  IC50: 16.8 ± 2.1 µM
[4]
  IC50: 28.4 ± 5.4 µM
[5]
  IC50: 17.3 ± 3.3 µM
[6]
  IC50: 9.2 ± 1.8 µM

## [Fe2Cp2(CO)2(μ‐CO){μ‐CNMe(CH2CHCH2)}]X [[3F]CF3SO3]
[1]
  % Lysozyme methylation (alkylation): 47%
[2]; [7]
  IC50: > 200 µM
[2]; [8]
  IC50: > 100 µM
[3]
  IC50: > 100 µM
[4]
  IC50: > 100 µM
[5]
  IC50: > 100 µM
[6]
  IC50: > 100 µM

## [Fe2Cp2(CO)2(μ‐CO){μ‐CNMe(CH2PO3Et2)}]X [[2B]BF4]
[1]
  % Lysozyme methylation (alkylation): 49%
[2]; [7]
  IC50: > 200 µM
[2]; [8]
  IC50: > 100 µM
[3]
  IC50: > 100 µM
[4]
  IC50: > 100 µM
[5]
  IC50: > 100 µM
[6]
  IC50: > 100 µM
